Patent publication US11311548B2, “Cancer therapy” (Aslan Pharmaceuticals Pte. Ltd., priority 2017, dated 2022)
“Also recorded” adds a separate entry of the source.

Tests used:
[1] = test system: Multiple myeloma (MM) cell lines; assay: CellTiter-Glo Luminescent Cell Viability Assay, MM cell lines; type: cell-based, human; settings: increasing dose, 48 hours
Method: (§1) Multiple myeloma (MM) or chronic myeloid leukaemia (CML) cell lines were seeded at 20,000 cells in 100 μL of medium in 96-well format and treated with increasing dose of ASLAN003 for 48 hours. DMSO was used as control. The CellTiter-Glo® Luminescent Cell Viability Assay, which is a homogeneous method of determining the number of viable cells in culture based on quantitation of the ATP present, i.e. an indicator of metabolically active cells was then performed on the cell lines.

[2] = test system: HL-60; assay: Differentiation of AML cell line (CD11b/CD14 flow cytometry, NBT assay, Wright-Giemsa staining); type: cell-based; settings: HL-60, FAB M2
Method: (§2) The AML cell lines were dosed with the varying concentrations of ASLAN003 and differentiation of the cell lines were observed via upregulation of CD11b and CD14 on the cell surface via flow cytometry. Differentiation was also determined using the NBT assay and from morphological observations from Wright-Giemsa staining.

[3] = test system: KG-1; assay: as above; type: cell-based; settings: KG-1, FAB M0/M1
Method: as §2

[4] = test system: THP-1; assay: as above; type: cell-based; settings: THP-1, FAB M5
Method: as §2

[5] = test system: NB-4; assay: as above; type: cell-based; settings: NB-4, FAB M3
Method: as §2

[6] = test system: MOLM-14; assay: as above; type: cell-based; settings: MOLM-14, FAB M5
Method: as §2

[7] = test system: AD537 primary MDS bone marrow cells; assay: FACs analysis of primary MDS bone marrow cells; type: cell-based; settings: 96 hours
Method: (§3) AD345 primary MDS cells (refractory cytopenia with multilineage dysplasia, normal karyotype) and AD537 primary MDS bone marrow cells (refractory cytopenia with multilineage dysplasia, karyotype 46, XY, 43.1% myeloid) were treated with ASLAN003 (4000 nM) or DMSO control for 96 hours. A FACs analysis was then performed using Pacific blue dye. The AD537 cells were also stained with Wright-Giemsa and NBT reduction.

[8] = test system: MOLM-14 xenograft; assay: MOLM-14 xenograft model in NSG mice; type: in vivo
Method: NSG mice were inoculated with MOLM-14 cells via tail vein injection. Treatment by oral gavage with either ASLAN003 (50 mg/kg QD) or vehicle control was started 3 days past inoculation. 11 mice were treated in the ASLAN003 group and 12 mice were treated in the vehicle control group. The following data is collected at the end of the experiment: […]

[9] = test system: AD345 primary MDS cells; assay: FACs analysis of primary MDS cells; type: cell-based; settings: 96 hours
Method: as §3

[10] = test system: chronic myeloid leukaemia (CML) cell lines; assay: CellTiter-Glo Luminescent Cell Viability Assay, CML cell lines; type: cell-based, human; settings: CML cell lines (K562, KCL-22), increasing dose, 48 hours
Method: as §1

SMILES: COc1cccc(-c2cc(F)c(Nc3ncccc3C(=O)O)c(F)c2)c1 [ASLAN003, 2-(3,5-difluoro-3′-methoxybiphenyl-4-ylamino) nicotinic acid]
- Cell viability [1]: has the ability to reduce the viability
- ASLAN003 Differentiation [2]: did not induce observed differentiation effects; also recorded: Negative
- ASLAN003 Differentiation [3]: myeloid differentiation effects of ASLAN003 were observed; also recorded: Positive
- ASLAN003 Differentiation [4]: myeloid differentiation effects of ASLAN003 were observed; also recorded: Positive
- ASLAN003 Differentiation [5]: did not induce observed differentiation effects; also recorded: Negative
- ASLAN003 Differentiation [6]: myeloid differentiation effects of ASLAN003 were observed; also recorded: Positive
- increase in CD13+CD33+ cells ([7]; AD537, 4 μM): about 12.3%
- increase in CD14+ cells ([7]; AD537, 4 μM): about 20%
- increase of CD11b+ cells ([7]; AD537, 4 μM): ~30%
- viability at 4 µM ([7]; Bone marrow cell, AD537, 4000 nM, DMSO control 84.5%, read-out: % viable cells): 73%
- Survival of MOLM-14 xenograft mice ([8]; 50 mg/kg QD oral gavage, vs vehicle): significantly (p=0.031) prolonged survival
- Median survival ([8]; MOLM-14 xenograft NSG mice, 50 mg/kg QD oral gavage from 3 days past inoculation, vehicle group 24 days): 27 days
- Leukaemic burden (percentage of CD45+ cells) ([8]; bone marrow, peripheral blood, spleen and liver, 50 mg/kg QD oral gavage, flow cytometry): significantly decreased leukaemic burden
- Differentiation of leukaemic cells (hCD11b+ and hCD14+ cells) ([8]; bone marrow, 50 mg/kg QD oral gavage, flow cytometry): significantly induced differentiation
- increase in CD11b+CD14+ cells ([9]; AD345, 4 μM): about 11%
- increase in CD13+CD33+ cells ([9]; AD345, 4 μM): about 12.3%
- viability at 4 µM ([9]; AD345, 4000 nM, DMSO control 93%, read-out: % viable cells): 86.5%
- Cell viability [10]: has the ability to reduce the viability
